This is an account of results in US11345666B2, “Phenyl and pyridinyl substituted imidazoles as modulators of RORγT” (Janssen Pharmaceutica NV, priority 2018, dated 2022).

For assay [1], the target named is full-length human RORγt (Homo sapiens (Human), UniProt P51449). Nature of the assay: RORγt (full-length human) reporter assay, conditions A or B. It is filed as cell-based. The settings on record: for inhibition at 0.67 µM: 0.67 μM compound concentration (****); for IC50: HEK293T cells, read-out: RORγt (FL) Reporter Assay A or B, IC50; for inhibition at 2 µM: 2 μM compound concentration (**); for inhibition at 0.22 µM: 0.22 μM compound concentration (******); for inhibition at 6 µM: read-out: RORγt (FL) Reporter Assay A or B, % inhibition @ 6 μM, 6 μM compound concentration. Put shortly:
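HEK293T cells transiently co-transfected (PEI) with GAL4-DBD–RORγt, GAL4-firefly luciferase and CMV-Renilla reporters; condition A 35,000 cells/well, 170.5 ng DNA/well; condition B 8750 cells/well, 42.6 ng DNA/well.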

For assay [2], the target named is human RORγt ligand binding domain (RORγt LBD) (Homo sapiens (Human), UniProt P51449). Nature of the assay: RORγt ThermoFluor assay. Put shortly:
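Thermal shift of His-tagged human RORγt LBD (0.065 mg/mL) with 60 μM 1,8-ANS in 100 mM Hepes pH 7.0, 10 mM NaCl, 2.5 mM GSH, 0.002% Tween-20, heated at 1° C./min. Compounds in 1:2 series from a 10 mM DMSO stock; KD estimated from ΔTm using protein unfolding thermodynamics.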

The mark [3] stands for this setting: read-out: RORγt (FL) Reporter Assay A or B, % inhibition.

Sequence of human RORγt ligand binding domain (RORγt LBD) (P51449 other isoform, or with tags, fused parts or gaps): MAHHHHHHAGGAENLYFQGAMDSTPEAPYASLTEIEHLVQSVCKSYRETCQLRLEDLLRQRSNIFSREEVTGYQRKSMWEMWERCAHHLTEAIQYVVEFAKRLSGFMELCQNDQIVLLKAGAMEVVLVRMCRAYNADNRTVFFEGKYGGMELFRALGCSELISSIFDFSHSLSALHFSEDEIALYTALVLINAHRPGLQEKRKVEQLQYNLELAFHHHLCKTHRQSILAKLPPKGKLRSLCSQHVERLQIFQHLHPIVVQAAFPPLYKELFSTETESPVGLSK
Sequence of full-length human RORγt (P51449 other isoform, or with tags, fused parts or gaps): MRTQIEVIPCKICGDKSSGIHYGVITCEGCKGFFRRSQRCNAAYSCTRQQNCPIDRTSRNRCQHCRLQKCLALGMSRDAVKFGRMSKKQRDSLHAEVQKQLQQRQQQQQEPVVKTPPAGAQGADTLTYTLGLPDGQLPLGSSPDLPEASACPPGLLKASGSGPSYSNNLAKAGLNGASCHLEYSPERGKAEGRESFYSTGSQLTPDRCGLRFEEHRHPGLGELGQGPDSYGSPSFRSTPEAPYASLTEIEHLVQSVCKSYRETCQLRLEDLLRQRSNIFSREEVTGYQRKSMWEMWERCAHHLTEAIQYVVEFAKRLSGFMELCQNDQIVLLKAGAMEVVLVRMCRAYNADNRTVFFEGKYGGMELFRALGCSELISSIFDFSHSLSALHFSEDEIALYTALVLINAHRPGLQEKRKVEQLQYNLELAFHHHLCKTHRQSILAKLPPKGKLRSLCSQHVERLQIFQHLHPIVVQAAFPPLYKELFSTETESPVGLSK

As to `CCc1nc(C(=O)NC[C@H]2CC[C@H](S(C)(=O)=O)CC2)c(Cl)n1-c1ccc(CCCC(F)(F)F)cc1F` [Example 97, 5-Chloro-2-ethyl-1-(2-fluoro-4-(4,4,4-trifluorobutyl)phenyl)-N-(((1r,4r)-4-(methylsulfonyl)cyclohexyl)methyl)-1H-imidazole-4-carboxamide], the inhibition at 0.67 µM in assay [1] (setting [3]) was 53%. Also, the IC50 in assay [1] turned out to be 22 nM. In addition, binding in assay [2] was put at a Kd of 14 nM.
As for `CCc1nc(C(=O)NC[C@]2(O)CC[C@@H](S(C)(=O)=O)CC2)c(Cl)n1-c1ccc(CCCC(F)(F)F)cc1F` [Example 98, 5-Chloro-2-ethyl-1-(2-fluoro-4-(4,4,4-trifluorobutyl)phenyl)-N-(((1s,4s)-1-hydroxy-4-(methylsulfonyl)cyclohexyl)methyl)-1H-imidazole-4-carboxamide], in assay [1] (setting [3]), the inhibition at 2 µM worked out at 43%. Also, the IC50 in assay [1] came to 33 nM. The same molecule registered a dissociation constant Kd in assay [2] of 33 nM.
For `CCc1nc(C(=O)NC[C@H]2CC[C@H](S(C)(=O)=O)CC2)c(Cl)n1-c1ccc(CC(C(F)(F)F)C(F)(F)F)cc1F` [Example 99, 5-Chloro-2-ethyl-1-(2-fluoro-4-(3,3,3-trifluoro-2-(trifluoromethyl)propyl)phenyl)-N-(((1r,4r)-4-(methylsulfonyl)cyclohexyl)methyl)-1H-imidazole-4-carboxamide], the inhibition at 0.22 µM in assay [1] (setting [3]) is 99%. Moreover, in assay [1], the concentration for half-maximal inhibition (IC50) was found to be 16 nM. The molecule further gave a Kd in assay [2] of 4 nM.
For `CCc1nc(C(=O)NC[C@H]2CC[C@H](S(C)(=O)=O)CC2)c(Cl)n1-c1ccc(CC(C)(C)C(F)(F)F)cc1F` [Example 101, 5-Chloro-2-ethyl-1-(2-fluoro-4-(3,3,3-trifluoro-2,2-dimethylpropyl)phenyl)-N-(((1r,4r)-4-(methylsulfonyl)cyclohexyl)methyl)-1H-imidazole-4-carboxamide] the same measures were 65%, 18 nM and 4 nM.
Take `CCc1nc(C(=O)NC[C@]2(O)CC[C@@H](S(C)(=O)=O)CC2)c(Cl)n1-c1ccc(CC(C)(C)C(F)(F)F)cc1F` [Example 102, 5-Chloro-2-ethyl-1-(2-fluoro-4-(3,3,3-trifluoro-2,2-dimethylpropyl)phenyl)-N-(((1s,4s)-1-hydroxy-4-(methylsulfonyl)cyclohexyl)methyl)-1H-imidazole-4-carboxamide]: the inhibition at 0.67 µM in assay [1] (setting [3]) was 74%. Also, in assay [1], the IC50 was determined as 36 nM. In addition, the affinity in assay [2], expressed as Kd, was 8 nM.
For the molecule `CCc1nc(C(=O)NC[C@]2(O)CC[C@@H](S(C)(=O)=O)CC2)c(C)n1-c1ccc(CC(C(F)(F)F)C(F)(F)F)c(F)c1` [Example 106, 2-Ethyl-1-(3-fluoro-4-(3,3,3-trifluoro-2-(trifluoromethyl)propyl)phenyl)-N-(((1s,4s)-1-hydroxy-4-(methylsulfonyl)cyclohexyl)methyl)-5-methyl-1H-imidazole-4-carboxamide], the inhibition at 0.22 µM in assay [1] (setting [3]) was determined as 40%. Also, the IC50 in assay [1] was determined as 170 nM. In assay [2], this molecule came in with a Kd of 55 nM.
`CCc1nc(C(=O)NC[C@]2(O)CC[C@@H](S(C)(=O)=O)CC2)c(Cl)n1-c1c(F)cc(CC(O)(C(F)(F)F)C(F)(F)F)cc1F` [Example 108, 5-Chloro-1-(2,6-difluoro-4-(3,3,3-trifluoro-2-hydroxy-2-(trifluoromethyl)propyl)phenyl)-2-ethyl-N-(((1s,4s)-1-hydroxy-4-(methylsulfonyl)cyclohexyl)methyl)-1H-imidazole-4-carboxamide]: in assay [1], the half-inhibitory concentration (IC50) worked out at 340 nM and the inhibition at 6 µM amounted to 99%. In addition, binding in assay [2] was put at a Kd of 100 nM.
As for `CCc1nc(C(=O)NC[C@H]2CC[C@H](S(C)(=O)=O)CC2)c(C)n1-c1ccc(CC(C(F)(F)F)C(F)(F)F)cc1F` [Example 110, 2-Ethyl-1-(2-fluoro-4-(3,3,3-trifluoro-2-(trifluoromethyl)propyl)phenyl)-5-methyl-N-(((r,4r)-4-(methylsulfonyl)cyclohexyl)methyl)-1H-imidazole-4-carboxamide], the inhibition at 0.07 µM in assay [1] (0.07 μM compound concentration (*******), read-out: RORγt (FL) Reporter Assay A or B, % inhibition) is 90%. Also, the IC50 in assay [1] worked out at 1.8 nM. This molecule had a Kd in assay [2] of 3.3 nM.
With `CCc1nc(C(=O)NC[C@]2(O)CC[C@@H](S(C)(=O)=O)CC2)c(C(N)=O)n1-c1ccc(CC(C)(C)C(F)(F)F)cc1OC(F)(F)F` [Example 112, 2-Ethyl-N^4-(((1s,4s)-1-hydroxy-4-(methylsulfonyl)cyclohexyl)methyl)-1-(4-(3,3,3-trifluoro-2,2-dimethylpropyl)-2-(trifluoromethoxy)phenyl)-1H-imidazole-4,5-dicarboxamide], in assay [1] (setting [3]), the inhibition at 2 µM is 89%. In addition, the IC50 in assay [1] was found to be 17 nM. This molecule also had a Kd in assay [2] of 1.9 nM.
`CCc1nc(C(=O)NC[C@H]2CC[C@H](S(C)(=O)=O)CC2)c(C#N)n1-c1ccc(CC(C)(C)C(F)(F)F)cc1OC(F)(F)F` [Example 113, 5-Cyano-2-ethyl-N-(((1r,4r)-4-(methylsulfonyl)cyclohexyl)methyl)-1-(4-(3,3,3-trifluoro-2,2-dimethylpropyl)-2-(trifluoromethoxy)phenyl)-1H-imidazole-4-carboxamide]: in assay [1] (setting [3]), the inhibition at 2 µM was found to be 88%. Moreover, the IC50 in assay [1] turned out to be 44 nM. Besides, in assay [2], binding was characterised by a dissociation constant (Kd) of 8.3 nM.
For the molecule `CCc1nc(C(=O)NC[C@]2(O)CC[C@@H](S(C)(=O)=O)CC2)c(C#N)n1-c1ccc(CCC(F)(F)F)cc1OC(F)(F)F` [Example 114, 5-Cyano-2-ethyl-N-(((1s,4s)-1-hydroxy-4-(methylsulfonyl)cyclohexyl)methyl)-1-(2-(trifluoromethoxy)-4-(3,3,3-trifluoropropyl)phenyl)-1H-imidazole-4-carboxamide], in assay [1], the 50% inhibitory concentration (IC50) amounted to 660 nM and the inhibition at 6 µM amounted to 66%. Besides, the Kd in assay [2] turned out to be 110 nM.
Turning to `CCc1nc(C(=O)NC[C@H]2CC[C@H](S(C)(=O)=O)CC2)c(C#N)n1-c1ccc(CCC(F)(F)F)cc1OC(F)(F)F` [Example 115, 5-Cyano-2-ethyl-N-(((1r,4r)-4-(methylsulfonyl)cyclohexyl)methyl)-1-(2-(trifluoromethoxy)-4-(3,3,3-trifluoropropyl)phenyl)-1H-imidazole-4-carboxamide], in assay [1], the IC50 was 190 nM and the inhibition at 6 µM was 74%. In assay [2], this molecule gave a Kd of 100 nM.
On to `CCc1nc(C(=O)NC[C@H]2CC[C@H](S(C)(=O)=O)CC2)cn1-c1cnc(CCC(F)(F)F)cc1OC` [Example 116, 2-Ethyl-1-(4-methoxy-6-(3,3,3-trifluoropropyl)pyridin-3-yl)-N-(((1r,4r)-4-(methylsulfonyl)cyclohexyl)methyl)-1H-imidazole-4-carboxamide], for which, in assay [1], the 50% inhibitory concentration (IC50) is 3000 nM and the inhibition at 6 µM turned out to be 30%. In assay [2], this molecule yielded a dissociation constant Kd of 5000 nM.
In the case of `CCc1nc(C(=O)NC[C@H]2CC[C@H](S(C)(=O)=O)CC2)c(C#N)n1-c1cnc(CCC(F)(F)F)cc1OC` [Example 117, 5-Cyano-2-ethyl-1-(4-methoxy-6-(3,3,3-trifluoropropyl)pyridin-3-yl)-N-(((1r,4r)-4-(methylsulfonyl)cyclohexyl)methyl)-1H-imidazole-4-carboxamide], in assay [1], the half-inhibitory concentration (IC50) came out at 1500 nM and the inhibition at 6 µM is 88%. For the same molecule, the dissociation constant Kd in assay [2] stood at 560 nM.
For `CCc1nc(C(=O)NC[C@H]2CC[C@H](S(C)(=O)=O)CC2)c(C#N)n1-c1ncc(CCC(F)(F)F)cc1OC` [Example 119, 5-Cyano-2-ethyl-1-(3-methoxy-5-(3,3,3-trifluoropropyl)pyridin-2-yl)-N-(((1r,4r)-4-(methylsulfonyl)cyclohexyl)methyl)-1H-imidazole-4-carboxamide] the same measures were 720 nM, 96% and 190 nM.
On to `CCc1nc(C(=O)NC[C@]2(O)CC[C@@H](S(C)(=O)=O)CC2)c(C#N)n1-c1ncc(CCC(F)(F)F)cc1OC` [Example 120, 5-Cyano-2-ethyl-N-(((1s,4s)-1-hydroxy-4-(methylsulfonyl)cyclohexyl)methyl)-1-(3-methoxy-5-(3,3,3-trifluoropropyl)pyridin-2-yl)-1H-imidazole-4-carboxamide], for which, in assay [1], the half-maximal inhibitory concentration (IC50) turned out to be 1400 nM and the inhibition at 6 µM turned out to be 57%. In assay [2], this molecule yielded a Kd of 830 nM.
For `CCc1nc(C(=O)NC[C@]2(C#N)CC[C@@H](S(C)(=O)=O)CC2)c(C#N)n1-c1ncc(CCC(F)(F)F)cc1OC` [Example 121, 5-Cyano-N-(((1s*,4s*)-1-cyano-4-(methylsulfonyl)cyclohexyl)methyl)-2-ethyl-1-(3-methoxy-5-(3,3,3-trifluoropropyl)pyridin-2-yl)-1H-imidazole-4-carboxamide] the same measures were 1700 nM, 76% and 300 nM.
Turning to `CCc1nc(C(=O)NC[C@H]2CC[C@H](S(C)(=O)=O)CC2)c(C#N)n1-c1ncc(CC(C)(C)C(F)(F)F)cc1OC` [Example 122, 5-Cyano-2-ethyl-1-(3-methoxy-5-(3,3,3-trifluoro-2,2-dimethylpropyl)pyridin-2-yl)-N-(((1r,4r)-4-(methylsulfonyl)cyclohexyl)methyl)-1H-imidazole-4-carboxamide], the inhibition at 2 µM in assay [1] (setting [3]) was 101%. The IC50 in assay [1] was determined as 48 nM. The same molecule had an equilibrium dissociation constant (Kd) in assay [2] of 12 nM.

As a reminder, the inhibition is the relative decrease from the control value, in per cent. As usually defined, the IC50 is the concentration that inhibits the measured activity by half. The Kd is the equilibrium constant for the complex coming apart.
